pIC50: −log10 of the molar value. Where two headings read alike, the source gives them in different places.
Experiments:
[1] = system: SK-UT-1B; test: In Vitro Cellular Activity (Table III), SK-UT-1B; format: cell-based; settings: SK-UT-1B cells
[2] = system: BT474; test: Cytotoxicity assay (SRB), BT474; format: cell-based; settings: BT474 cells, SRB, 6 days, read-out: In Vitro Cellular Activity IC50 BT474
How it was run: (§1)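 Cells seeded overnight at 37 °C, 7% CO2 (BT474 12000, HCT-116 4000, LoVo and MCF-7 6000 cells/well) in RPMI 1640 with 5% FBS, then exposed to compound dilutions for 3 days (BT474 6 days). Survival versus untreated controls by TCA fixation and SRB staining, absorbance 540 nm.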

[3] = system: LoVo; test: Cytotoxicity assay (SRB), LoVo; format: cell-based; settings: LoVo cells, SRB, three days, read-out: In Vitro Cellular Activity IC50 LOVO
How it was run: as §1

[4] = system: HCT-116; test: Cytotoxicity assay (SRB), HCT-116; format: cell-based; settings: HCT116 cells, SRB, three days, read-out: In Vitro Cellular Activity IC50 HCT116
How it was run: as §1

[5] = system: MCF-7; test: Cytotoxicity assay (SRB), MCF-7; format: cell-based; settings: MCF-7 cells, SRB, three days, read-out: In Vitro Cellular Activity IC50 MCF-7
How it was run: as §1

[6] = molecular target: T1, cyclin D1/cdk 4 enzyme (Homo sapiens, UniProt P11802); test: CDK4 ELISA kinase assay (phospho-Rb ser 795 detection); format: biochemical; settings: In Vitro Enzyme Assays, 200 μM ATP, read-out: CDK4 IC50
T1 construct: made in house; host or cells: Sf9 insect cells, recombinant baculovirus
T1 sequence (P11802 whole entry, species assumed): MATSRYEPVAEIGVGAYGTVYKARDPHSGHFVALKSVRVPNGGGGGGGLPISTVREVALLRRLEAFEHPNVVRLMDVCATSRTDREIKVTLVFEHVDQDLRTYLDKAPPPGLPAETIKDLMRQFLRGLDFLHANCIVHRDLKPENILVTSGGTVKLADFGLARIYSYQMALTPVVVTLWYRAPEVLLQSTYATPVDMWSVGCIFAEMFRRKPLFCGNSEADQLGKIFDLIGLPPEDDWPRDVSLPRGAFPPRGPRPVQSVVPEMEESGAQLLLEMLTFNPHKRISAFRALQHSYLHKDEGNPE
T1 sequence (P24385 whole entry partner, species assumed): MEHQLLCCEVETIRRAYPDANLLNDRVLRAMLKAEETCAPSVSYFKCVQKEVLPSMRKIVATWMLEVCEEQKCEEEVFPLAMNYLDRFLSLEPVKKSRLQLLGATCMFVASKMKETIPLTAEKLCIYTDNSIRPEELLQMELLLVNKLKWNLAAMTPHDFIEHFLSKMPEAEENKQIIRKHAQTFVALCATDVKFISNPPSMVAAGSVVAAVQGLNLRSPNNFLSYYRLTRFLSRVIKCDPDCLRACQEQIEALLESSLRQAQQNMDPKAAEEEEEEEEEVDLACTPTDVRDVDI
How it was run: (§2)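 Sf9-derived cyclin/CDK, 200 μM ATP, immobilized GST-Rb; 30° C/1 h. Detection: phospho-Ser795 Ab, HRP, TMB, OD450.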

[7] = molecular target: T2, cyclin E/CDK2 enzyme (Homo sapiens, UniProt P24941); test: CDK2 ELISA kinase assay (phospho-Rb ser 795 detection); format: biochemical; settings: In Vitro Enzyme Assays, read-out: CDK2 IC50
T2 construct: made in house; host or cells: Sf9 insect cells, recombinant baculovirus
How it was run: as §2

[8] = molecular target: T3, cyclin B/CDK1 enzyme (Homo sapiens, UniProt P06493); test: CDK1 ELISA kinase assay (phospho-Rb ser 795 detection); format: biochemical; settings: In Vitro Enzyme Assays, read-out: CDK1 IC50
T3 construct: purchased New England BioLabs; host or cells: Sf9 insect cells, recombinant baculovirus
T3 sequence (P06493 whole entry): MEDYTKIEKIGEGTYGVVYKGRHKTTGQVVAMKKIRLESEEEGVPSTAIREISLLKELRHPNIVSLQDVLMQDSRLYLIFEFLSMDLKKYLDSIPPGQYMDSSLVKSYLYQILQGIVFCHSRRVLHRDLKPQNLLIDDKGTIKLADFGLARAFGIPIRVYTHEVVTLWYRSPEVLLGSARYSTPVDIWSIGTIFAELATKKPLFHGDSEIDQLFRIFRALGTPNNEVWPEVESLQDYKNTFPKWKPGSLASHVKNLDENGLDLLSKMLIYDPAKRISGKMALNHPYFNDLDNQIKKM
T3 sequence (P14635 whole entry partner): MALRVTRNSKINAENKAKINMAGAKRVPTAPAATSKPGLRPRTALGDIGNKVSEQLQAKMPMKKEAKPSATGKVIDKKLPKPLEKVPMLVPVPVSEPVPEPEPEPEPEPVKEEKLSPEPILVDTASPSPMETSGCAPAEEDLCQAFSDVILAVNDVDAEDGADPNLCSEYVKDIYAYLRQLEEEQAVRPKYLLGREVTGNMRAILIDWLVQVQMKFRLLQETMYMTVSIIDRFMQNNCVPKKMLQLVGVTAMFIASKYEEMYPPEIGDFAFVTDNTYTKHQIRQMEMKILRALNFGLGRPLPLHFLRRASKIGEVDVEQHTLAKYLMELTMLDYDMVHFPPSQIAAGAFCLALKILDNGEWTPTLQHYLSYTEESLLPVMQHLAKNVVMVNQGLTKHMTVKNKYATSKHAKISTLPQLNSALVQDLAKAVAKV
How it was run: as §2

Compound | pIC50 ([1]; Homo sapiens, Skut1B) | pIC50 ([2]; Homo sapiens, BT-474, 144 h) | pIC50 ([3]; Homo sapiens, LoVo, 72 h) | pIC50 ([4]; Homo sapiens, HCT-116, 72 h) | melting point | pIC50 ([5]; Homo sapiens, MCF7, 72 h) | pIC50 [6] | pIC50 [7] | pIC50 [8] | pIC50 [1] | pIC50 [2] | pIC50 [3] | pIC50 [4] | pIC50 [5]
Cn1ccnc1Sc1ccc(N/C=C2\C(=O)NC(=O)c3ccccc32)cc1Cl [Example 14, (4Z-4-[{3-Chloro-4[(1-methyl-1H-imidazole-2-uy)thio]phenyl}amino)methylene]isoquinoline-1,3(2H,4H)-dione] | 4.74 | 4.42 | < 4.30 | 5.06 | 264 to 265 °C | < 4.30 |  |  |  |  |  |  |  | 
O=C1NC(=O)c2ccccc2/C1=C/Nc1cccc(CN2CCCC2)c1 [Example 18, (4Z)-4-({[3-(Pyrrolidin-1-ylmethyl)phenyl]amino}methylene)isoquinoline-1,3(2H,4H)-dione] | 4.80 | 4.51 | 4.64 | 4.82 | 172 to 173 °C | 4.82 |  |  |  |  |  |  |  | 
O=C1NC(=O)c2cc(Br)ccc2/C1=C/Nc1ccc(CN2CCCCC2)cc1 [Example 44, (4Z)-7-Bromo-4-({[4-(Piperidin-1-ylmethyl)phenyl]amino}methylene)isoquinoline-1,3(2H,4H)-dione] | 5.46 | 5.34 | 5.40 | 5.44 | 242 to 243 °C | 5.18 |  |  |  |  |  |  |  | 
O=C1NCc2ccccc2/C1=C/Nc1ccc(-c2c[nH]cn2)cc1 [compound 3] | 5.36 | 4.70 | 4.92 | 5.11 |  | 4.96 | 4.38 | 4.89 | < 4.49 |  |  |  |  | 
O=C1NC(=O)c2ccccc2/C1=C/Nc1cccc(CN2CCCCC2)c1 [Example 16, (4Z)-4-({[3-(Piperidin-1-ylmethyl)phenyl]amino}methylene)isoquinoline-1,3(2H,4H)-dione] | 4.73 | 4.35 | 4.85 | 4.85 | 173 to 174 °C | 4.72 |  |  |  |  |  |  |  | 
(4E)-4-(2,3-dimethoxybenzylidene)isoquinoline-1,3(2H,4H)-dione-(4Z)-4-(2,3-dimethoxybenzylidene)isoquinoline-1,3(2H,4H)-dione (1:1) [Example 9] |  |  |  |  |  |  | < 4.30 | < 4.49 | < 4.49 | 4.82 | 4.32 | 5.17 | 5.60 | 5.01
COc1ccc(/C=C2/C(=O)NC(=O)c3ccccc32)cc1OC [Example 12, (4E)-4-(3,4-dimethoxybenzylidene)isoquinoline-1,3(2H,4H)-dione] | < 4.49 | < 4.30 | 5.27 | 5.68 |  | 4.84 | < 4.30 | < 4.49 | < 4.49 |  |  |  |  | 
COc1cc(CN/C=C2\C(=O)NC(=O)c3ccc(Br)cc32)ccc1O [Example 28, (4Z)-6-Bromo-4-{[(4-hydroxy-3-methoxybenzyl)amino]methylene}isoquinoline-1,3(2H,4H)-dione] | 4.48 | 4.41 | < 4.30 | 4.55 | 260 to 261 °C | < 4.30 |  |  |  |  |  |  |  | 
O=C1NC(=O)c2ccccc2/C1=C/Nc1ccc(-c2ccccc2)cc1 [Example 21, (4Z)-4-[(1,1′-Biphenyl-4-ylamino)methylene]isoquinoline-1,3(2H,4H)-dione] | 4.71 | < 4.30 | < 4.30 | < 4.30 | 261 to 262 °C | < 4.30 |  |  |  |  |  |  |  | 
O=C1NC(=O)c2ccccc2/C1=C/Nc1ccc(N2CCOCC2)cc1 [Example 6, (4Z)-4-{[(4-Morpholin-4-ylphenyl)amino]methylene}isoquinoline-1,3(2H,4H)-dione] | 4.74 | < 4.30 | < 4.30 | < 4.30 |  | < 4.30 | < 4.30 | < 4.54 | < 4.54 |  |  |  |  | 
O=C1NC(=O)c2ccc(Br)cc2/C1=C/NCc1cccnc1 [compound 30] | 5.31 | 4.51 | 4.85 | 5.04 |  | 4.82 | < 4.30 | 5.85 | < 4.30 |  |  |  |  | 
O=C1NC(=O)c2ccc(Br)cc2/C1=C/Nc1ccccc1CN1CCCCC1 [Example 41, (4Z)-6-Bromo-4-({[2-(piperidin-1-ylmethyl)phenyl}amino)methylene]isoquinolin-1,3(2H,4H)-dione] | 4.96 | 4.60 | 4.31 | 4.41 | 170 to 171 °C | 4.89 |  |  |  |  |  |  |  | 
CN1CCN(c2ccc(N/C=C3\C(=O)NC(=O)c4ccc([N+](=O)[O-])cc43)cc2)CC1 [Example 33, (4Z)-6-Nitro-4-({[4-(4-methylpiperazin-1-yl)phenyl}amino}methylene)isoquinoline-1,3(2H,4H)-dione] | 5.48 | 5.28 | 5.49 | 5.48 |  | 4.96 | 4.96 | < 4.30 | 5.14 |  |  |  |  | 
CC(C)(C)OC(=O)N1CCN(Cc2ccc(N/C=C3\C(=O)NC(=O)c4ccccc43)cc2)CC1 [Example 34] | 4.82 | 4.60 | < 4.30 | 4.85 | 219 to 220 °C | 4.42 |  |  |  |  |  |  |  | 
(4E)-4-[4-(dimethylamino)benzylidene]isoquinoline-1,3(2H,4H)-dione-(4Z)-4-[4-(dimethylamino)benzylidene]isoquinoline-1,3(2H,4H)-dione (1:1) [Example 10] |  |  |  |  |  |  | < 4.30 | < 4.47 | < 4.47 | 4.63 | < 4.30 | 5.23 | 5.64 | 4.90
CN1CCN(c2ccc(N/C=C3\C(=O)NC(=O)c4cc(Br)ccc43)cc2)CC1 [Example 45, (4Z)-7-Bromo-4-({[4-(4-methylPiperzin-1-yl)phenyl]amino}methylene)isoquinoline-1,3(2H,4H)-dione] | 4.51 | 4.72 | 4.48 | 5.30 |  | 4.73 |  | 4.33 | < 4.30 |  |  |  |  | 
CN1CCN(c2ccc(N/C=C3\C(=O)NC(=O)c4ccc(Br)cc43)cc2)CC1 [Example 27, (4Z)-6-Bromo-4-({[4-(4-methylpiperazin-1-yl)phenyl}amino}methylene)isoquinoline-1,3(2H,4H)-dione] | 5.44 | 5.51 | 5.42 | 5.51 |  | 5.52 | 5.85 | < 4.30 | < 4.30 |  |  |  |  | 
CN1CCN(Cc2ccc(N/C=C3\C(=O)NC(=O)c4ccccc43)cc2)CC1 [Example 20] | 4.73 |  |  | 5.00 | 231 to 232 °C | 4.85 | 5.17 |  | < 4.59 |  |  |  |  | 
O=C1NC(=O)c2ccccc2/C1=C/Nc1cccc(CN2CCCCCC2)c1 [Example 17, (4Z)-4-({[3-(Azepan-1-ylmethyl)phenyl]amino}methylene)isoquinoline-1,3(2H,4H)-dione] | 4.80 | 4.52 | 4.72 | 4.85 | 116 to 117 °C | 4.70 |  |  |  |  |  |  |  | 

Reference: US7713994B2 (Wyeth LLC, priority 2005, dated 2010)
